Reference: PubChem BioAssay (NCI)
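1) Cells in 96-well plates. 2) Compound, 48 h, 5 concentrations. 3) Linear interpolation between surrounding doses. 4) Unreached endpoint = highest concentration. TGI marks complete inhibition of growth.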 Where a SMILES comes first, the peptide text is derived from it. The star is where a group is joined. Boc = CC(C)(C)OC(=O)*

Experiments:
Assay in all cases: NCI anticancer screen, dose series, 48 h
PC-3 prostate = test system: PC-3 prostate
ACHN renal = test system: ACHN renal
MDA-MB-231 breast = test system: MDA-MB-231 breast
HOP-92 NSCLC = test system: HOP-92 NSCLC
KM12 colon = test system: KM12 colon
M14 melanoma = test system: M14 melanoma
MDA-N = test system: MDA-N
OVCAR-8 ovarian = test system: OVCAR-8 ovarian
A549 NSCLC = test system: A549 NSCLC
SW-620 colon = test system: SW-620 colon
SK-MEL-2 melanoma = test system: SK-MEL-2 melanoma
NCI-H23 lung = test system: NCI-H23 lung
RPMI-8226 leukemia = test system: RPMI-8226 leukemia
OVCAR-4 ovarian = test system: OVCAR-4 ovarian

Compound	TGI (PC-3 prostate)	TGI (ACHN renal)	TGI (MDA-MB-231 breast)	TGI (HOP-92 NSCLC)	TGI (KM12 colon)	TGI (M14 melanoma)	TGI (MDA-N)	TGI (OVCAR-8 ovarian)	TGI (A549 NSCLC)	TGI (SW-620 colon)	TGI (SK-MEL-2 melanoma)	TGI (NCI-H23 lung)	TGI (RPMI-8226 leukemia)	TGI (OVCAR-4 ovarian)
CC1CC/C(=C\c2ccc(Cl)cc2)C(=O)/C1=C\c1ccc(Cl)cc1 (stereo unspecified)	> 100 µM	> 100 µM	> 100 µM	> 100 µM	41.5 µM	48.8 µM	> 100 µM	> 100 µM	> 100 µM	> 100 µM	37.9 µM	–	–	–
COc1cc(/C=C2\N=C(c3ccccc3)N(c3ccc(S(=O)(=O)Nc4nccs4)cc3)C2=O)ccc1O	> 100 µM	> 100 µM	–	> 100 µM	> 100 µM	> 100 µM	–	> 100 µM	> 100 µM	> 100 µM	> 100 µM	> 100 µM	> 100 µM	> 100 µM
CN1NC2=NCCN=C3NN(C)C(=NCCN=C1S2)S3	–	> 100 µM	–	> 100 µM	> 100 µM	> 100 µM	–	> 100 µM	> 100 µM	> 100 µM	–	> 100 µM	> 100 µM	> 100 µM
CCOC(=O)C12C3CCC1C2C(=O)C3 (stereo unspecified)	> 100 µM	> 100 µM	> 100 µM	–	> 100 µM	> 100 µM	> 100 µM	> 100 µM	> 100 µM	> 100 µM	> 100 µM	> 100 µM	> 100 µM	> 100 µM
O=[N+]([O-])/C(C(Cl)=C(Cl)Cl)=C(\Nc1cccc2cccnc12)Sc1ccccc1	80.5 µM	71.1 µM	> 100 µM	–	28.6 µM	> 100 µM	> 100 µM	–	> 100 µM	31.9 µM	82.5 µM	37.6 µM	> 100 µM	51.4 µM
O=C1CCCSCCCC(=O)CCCSCCC1	> 100 µM	–	> 100 µM	> 100 µM	> 100 µM	> 100 µM	> 100 µM	> 100 µM	> 100 µM	> 100 µM	–	> 100 µM	–	> 100 µM
CC(C)(C)c1ccc(Oc2ccc(C#N)c(C#N)c2)c(C(C)(C)C)c1	–	> 100 µM	–	> 100 µM	> 100 µM	> 100 µM	–	> 100 µM	> 100 µM	> 100 µM	97.8 µM	> 100 µM	43.1 µM	> 100 µM
Cc1ccc(-n2nnc3c(NNc4ccccc4)n[nH]c(=O)c32)cc1	> 100 µM	> 100 µM	> 100 µM	> 100 µM	> 100 µM	> 100 µM	–	> 100 µM	> 100 µM	–	> 100 µM	> 100 µM	> 100 µM	> 100 µM
Cc1nc(C)c(N2CCN(C(=O)NC(CCC(=O)O)C(=O)O)CC2)c(=O)[nH]1 (stereo unspecified)	> 100 µM	> 100 µM	> 100 µM	> 100 µM	> 100 µM	> 100 µM	> 100 µM	> 100 µM	> 100 µM	> 100 µM	–	> 100 µM	> 100 µM	> 100 µM
COC(=O)C(Cc1c[nH]c2ccccc12)NC(=O)C(Cc1c[nH]c2ccccc12)NC(=O)C(Cc1c[nH]c2ccccc12)NC(=O)C(Cc1c[nH]c2ccccc12)NC(=O)C(Cc1c[nH]c2ccccc12)NC(=O)OC(C)(C)C (stereo unspecified) (Boc-WWWWW-OMe; configuration not given here)	> 100 µM	> 100 µM	> 100 µM	–	–	> 100 µM	> 100 µM	> 100 µM	> 100 µM	> 100 µM	> 100 µM	> 100 µM	> 100 µM	> 100 µM
Nc1nc([O-])c([I+]c2ccccc2)c(=O)[nH]1	> 100 µM	> 100 µM	> 100 µM	> 100 µM	> 100 µM	–	> 100 µM	> 100 µM	> 100 µM	> 100 µM	–	> 100 µM	> 100 µM	> 100 µM
Brc1nc2c3ccccc3ncn2c1Br	–	50.9 µM	–	76.5 µM	> 100 µM	> 100 µM	–	> 100 µM	> 100 µM	> 100 µM	82.6 µM	56.1 µM	> 100 µM	42.7 µM
CC(C)C(=O)CC(Sc1ccc(N)cc1)c1ccccc1 (stereo unspecified)	> 100 µM	58.3 µM	60.5 µM	–	> 100 µM	> 100 µM	35.5 µM	96.9 µM	> 100 µM	34.8 µM	61.8 µM	58.2 µM	63.1 µM	–
CSC1=C(C)S/C(=C\c2ccc(/C=C3\SC(C)=C(SC)S3)cc2)S1	> 100 µM	> 100 µM	> 100 µM	> 100 µM	> 100 µM	> 100 µM	> 100 µM	> 100 µM	> 100 µM	> 100 µM	> 100 µM	> 100 µM	–	> 100 µM
CN(C(=O)C12C3C4C1C1C2C3C41C(=O)O)C(C)(C)C (stereo unspecified)	> 100 µM	> 100 µM	> 100 µM	> 100 µM	> 100 µM	> 100 µM	> 100 µM	> 100 µM	> 100 µM	> 100 µM	> 100 µM	> 100 µM	–	> 100 µM
CCOC(=O)/C(=C\NC[C@@H](C)O)c1nc2ccccc2[nH]1	–	90.4 µM	–	> 100 µM	> 100 µM	> 100 µM	> 100 µM	> 100 µM	> 100 µM	> 100 µM	–	> 100 µM	63.3 µM	> 100 µM
Cc1c2[nH]c3ccc(Br)cc3c2c(C)c2[nH]ccc(=O)c12	–	22.5 µM	–	–	25.6 µM	30.9 µM	–	76.9 µM	25.7 µM	25.5 µM	33.8 µM	37.8 µM	41.5 µM	31.3 µM
COC(=O)CC(SCCO)SCCO	> 100 µM	> 100 µM	> 100 µM	> 100 µM	> 100 µM	> 100 µM	> 100 µM	> 100 µM	> 100 µM	> 100 µM	–	> 100 µM	> 100 µM	> 100 µM
CN(OC(=O)CC(=O)c1ccccc1)C(=O)Cc1ccccc1	–	> 100 µM	–	–	> 100 µM	> 100 µM	–	> 100 µM	> 100 µM	> 100 µM	> 100 µM	> 100 µM	> 100 µM	> 100 µM

Compound	TGI (PC-3 prostate)	TGI (ACHN renal)	TGI (MDA-MB-231 breast)	TGI (HOP-92 NSCLC)	TGI (KM12 colon)	TGI (M14 melanoma)	TGI (MDA-N)	TGI (OVCAR-8 ovarian)	TGI (A549 NSCLC)	TGI (SW-620 colon)	TGI (SK-MEL-2 melanoma)	TGI (NCI-H23 lung)	TGI (RPMI-8226 leukemia)	TGI (OVCAR-4 ovarian)
[N-]=[N+]=NC1(c2ccccc2)C(=O)c2cccc3c4ccccc4n(c23)C1=O (stereo unspecified)	> 100 µM	> 100 µM	> 100 µM	–	> 100 µM	> 100 µM	> 100 µM	> 100 µM	> 100 µM	> 100 µM	> 100 µM	> 100 µM	> 100 µM	> 100 µM
COc1c2c(c(OC)c3c(=O)cc(C/C(=N/NC(=O)C[n+]4ccccc4)C(=O)Nc4cc(C)ccc4C)oc13)OCO2	–	> 100 µM	–	> 100 µM	> 100 µM	> 100 µM	–	> 100 µM	> 100 µM	> 100 µM	> 100 µM	> 100 µM	> 100 µM	> 100 µM
C(=C\c1ccccc1)/Cn1nc(-c2ccccc2)nc1-c1cnccn1	> 100 µM	–	> 100 µM	> 100 µM	–	> 100 µM	> 100 µM	> 100 µM	> 100 µM	> 100 µM	–	> 100 µM	> 100 µM	> 100 µM
COC(=O)/N=[N+](\[O-])C(c1ccc(Cl)cc1)c1ccc(Cl)cc1	> 100 µM	–	77.1 µM	–	> 100 µM	> 100 µM	> 100 µM	> 100 µM	> 100 µM	> 100 µM	> 100 µM	> 100 µM	67.3 µM	> 100 µM
COC1=C(OC)C(=O)c2cc(SC)c(=O)c(SC)cc2C1=O	–	28.9 µM	–	48.4 µM	> 100 µM	32.6 µM	–	50.9 µM	43.8 µM	> 100 µM	15.5 µM	20.2 µM	40.2 µM	24.8 µM
C=CCN1C(=O)/C(=C/c2ccccc2)N=C1SC/C=C/C	55.8 µM	> 100 µM	> 100 µM	55.5 µM	> 100 µM	> 100 µM	–	> 100 µM	> 100 µM	> 100 µM	63 µM	> 100 µM	49 µM	> 100 µM
N/C(=N\Nc1cccc(Cl)c1)c1cccnc1	> 100 µM	> 100 µM	> 100 µM	> 100 µM	> 100 µM	59.2 µM	–	> 100 µM	> 100 µM	> 100 µM	> 100 µM	> 100 µM	> 89.9 µM	> 100 µM
c1ccc2c(c1)Sc1ccccc1N2CCCN1c2ccccc2Sc2ccccc21	> 100 µM	> 100 µM	> 100 µM	> 100 µM	> 100 µM	> 100 µM	> 100 µM	> 100 µM	> 100 µM	> 100 µM	–	> 100 µM	–	> 100 µM
c1ccc2nc3c(nc2c1)sc1nc2ccccc2n13	> 100 µM	> 100 µM	> 100 µM	> 100 µM	> 100 µM	> 100 µM	> 100 µM	> 100 µM	> 100 µM	–	–	> 100 µM	> 100 µM	–
CC(C)/C(Cl)=N/OC(NC(=O)Nc1ccc(Cl)c(Cl)c1)(C(F)(F)F)C(F)(F)F	27.3 µM	24.9 µM	34.2 µM	29.7 µM	36.1 µM	18.3 µM	32.3 µM	34.8 µM	72.4 µM	3.92 µM	–	38.2 µM	4.7 µM	25.8 µM
Cc1ccc(/C(O)=C/c2nc3ccccc3nc2NC23CC4CC(CC(C4)C2)C3)cc1	> 10 µM	> 10 µM	> 10 µM	> 10 µM	> 10 µM	> 10 µM	> 10 µM	> 10 µM	> 10 µM	> 10 µM	–	> 10 µM	> 10 µM	> 10 µM
CCCCn1c(C)c(C)c2c1NN=C(C#N)S2(=O)=O	> 100 µM	> 100 µM	> 100 µM	–	> 100 µM	> 100 µM	–	> 100 µM	> 100 µM	> 100 µM	> 100 µM	> 100 µM	> 100 µM	> 100 µM
N#Cc1cccc(Nc2ccccc2SSc2ccccc2Nc2cccc(C#N)c2)c1	13.9 µM	> 21.5 µM	> 21.5 µM	19 µM	16.2 µM	18.6 µM	–	> 21.5 µM	> 21.5 µM	9.19 µM	–	> 21.5 µM	11.5 µM	> 21.5 µM
O=C(/C=C/c1ccsc1)c1cccs1	> 100 µM	> 100 µM	> 100 µM	93.5 µM	35.1 µM	54.4 µM	> 100 µM	> 10 µM	> 100 µM	32.3 µM	–	68 µM	–	> 100 µM
C[C@@H]1C(=O)O[C@@H]2C[C@@]1(C)[C@@H]1C(=O)C3(O)OC14C2(C)OC(=O)[C@@]4(O)CCC1C3C(O)C=C2CC=CC(=O)[C@@]21C (stereo partly specified)	> 100 µM	> 100 µM	> 100 µM	–	71.1 µM	90.8 µM	> 100 µM	> 100 µM	> 100 µM	> 100 µM	62.9 µM	–	61.3 µM	> 100 µM
N#CC12CCC(O)C(CC1)C2=O (stereo unspecified)	–	> 100 µM	–	–	> 100 µM	> 100 µM	–	> 100 µM	> 100 µM	–	> 100 µM	> 100 µM	57.1 µM	> 100 µM
O=c1ccc(-c2ccc(-n3ccnc3)cc2)nn1CCO	> 100 µM	> 100 µM	–	> 100 µM	> 100 µM	> 100 µM	> 100 µM	> 100 µM	> 100 µM	> 100 µM	–	> 100 µM	> 100 µM	> 100 µM
O=C1c2scc(-c3ccc(F)cc3)c2-n2cccc21	> 100 µM	> 100 µM	> 100 µM	–	> 100 µM	> 100 µM	28.8 µM	> 100 µM	> 100 µM	> 100 µM	> 100 µM	–	> 100 µM	> 100 µM
